Key:
[1] = AUC in Beagle dog at 1 mg/kg, iv; type: ADME, organism-based, Canis lupus familiaris; set-up: dose 1 mg/kg; conditions: in vivo
[2] = molecular target: T1, Tyrosine-protein kinase TXK (Homo sapiens, UniProt P42681); assay: Inhibition of TXK (unknown origin)
T1 sequence (P42681 whole entry): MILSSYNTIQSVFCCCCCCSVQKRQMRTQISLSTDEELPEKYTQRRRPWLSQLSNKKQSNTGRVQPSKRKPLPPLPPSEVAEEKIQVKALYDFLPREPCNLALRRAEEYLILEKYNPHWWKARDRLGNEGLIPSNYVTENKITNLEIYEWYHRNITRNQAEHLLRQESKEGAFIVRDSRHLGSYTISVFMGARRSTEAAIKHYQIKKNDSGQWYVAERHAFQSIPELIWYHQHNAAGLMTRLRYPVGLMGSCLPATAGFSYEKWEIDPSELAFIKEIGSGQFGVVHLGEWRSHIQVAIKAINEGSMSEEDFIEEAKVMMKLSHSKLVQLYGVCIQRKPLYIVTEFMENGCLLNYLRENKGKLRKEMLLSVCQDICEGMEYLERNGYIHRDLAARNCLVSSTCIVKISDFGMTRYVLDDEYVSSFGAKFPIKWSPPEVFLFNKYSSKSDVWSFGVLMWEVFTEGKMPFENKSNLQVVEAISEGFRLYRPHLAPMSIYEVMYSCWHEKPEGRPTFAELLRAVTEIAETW

[3] = Half life in Wistar Han rat at 2 mg/kg, iv; type: ADME, organism-based; conditions: in vivo
[4] = Cmax in Beagle dog at 2 mg/kg, po; type: ADME, organism-based, Canis lupus familiaris; set-up: route oral, dose 2 mg/kg; conditions: in vivo
[5] = molecular target: Receptor tyrosine-protein kinase erbB-4 (Homo sapiens, UniProt Q15303); assay: Inhibition of ERBB4 (unknown origin)
Receptor tyrosine-protein kinase erbB-4, sequence (Q15303 whole entry): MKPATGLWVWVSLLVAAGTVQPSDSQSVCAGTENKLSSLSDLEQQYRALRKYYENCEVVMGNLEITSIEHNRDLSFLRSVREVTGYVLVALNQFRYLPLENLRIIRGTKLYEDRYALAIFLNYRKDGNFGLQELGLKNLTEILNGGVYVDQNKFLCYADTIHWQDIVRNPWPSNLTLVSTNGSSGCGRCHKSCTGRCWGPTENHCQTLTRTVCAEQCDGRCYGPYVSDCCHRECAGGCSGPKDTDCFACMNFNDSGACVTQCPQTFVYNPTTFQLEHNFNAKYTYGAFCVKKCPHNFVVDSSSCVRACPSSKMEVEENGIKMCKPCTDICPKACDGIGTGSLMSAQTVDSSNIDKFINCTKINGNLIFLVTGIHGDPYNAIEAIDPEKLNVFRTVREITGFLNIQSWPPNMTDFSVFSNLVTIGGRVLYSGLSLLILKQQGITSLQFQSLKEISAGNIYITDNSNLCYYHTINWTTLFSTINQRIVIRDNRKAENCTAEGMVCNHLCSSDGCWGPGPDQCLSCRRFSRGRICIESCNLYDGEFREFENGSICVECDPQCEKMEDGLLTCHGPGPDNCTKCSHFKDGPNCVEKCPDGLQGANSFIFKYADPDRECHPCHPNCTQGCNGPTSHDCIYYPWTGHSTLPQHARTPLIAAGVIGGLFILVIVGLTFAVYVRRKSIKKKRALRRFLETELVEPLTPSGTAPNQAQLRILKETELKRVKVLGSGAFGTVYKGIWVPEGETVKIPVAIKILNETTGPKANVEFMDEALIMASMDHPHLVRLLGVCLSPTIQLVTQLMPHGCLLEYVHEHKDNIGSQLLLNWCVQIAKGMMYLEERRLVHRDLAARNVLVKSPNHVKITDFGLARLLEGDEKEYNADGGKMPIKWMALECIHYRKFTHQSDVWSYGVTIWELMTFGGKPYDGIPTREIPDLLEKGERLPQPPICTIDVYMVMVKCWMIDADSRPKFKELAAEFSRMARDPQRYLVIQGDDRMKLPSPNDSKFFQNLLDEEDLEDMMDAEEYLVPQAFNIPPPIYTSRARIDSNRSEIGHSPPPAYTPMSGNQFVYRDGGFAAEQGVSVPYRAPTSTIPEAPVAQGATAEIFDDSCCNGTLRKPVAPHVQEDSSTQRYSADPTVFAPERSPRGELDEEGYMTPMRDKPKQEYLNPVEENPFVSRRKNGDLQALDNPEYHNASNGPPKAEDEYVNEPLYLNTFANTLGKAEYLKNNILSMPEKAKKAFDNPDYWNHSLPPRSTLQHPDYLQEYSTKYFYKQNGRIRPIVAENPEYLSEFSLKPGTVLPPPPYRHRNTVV

[6] = molecular target: Tyrosine-protein kinase Srms (Homo sapiens, UniProt Q9H3Y6); assay: Inhibition of SRMS (unknown origin)
Tyrosine-protein kinase Srms, sequence (Q9H3Y6 whole entry): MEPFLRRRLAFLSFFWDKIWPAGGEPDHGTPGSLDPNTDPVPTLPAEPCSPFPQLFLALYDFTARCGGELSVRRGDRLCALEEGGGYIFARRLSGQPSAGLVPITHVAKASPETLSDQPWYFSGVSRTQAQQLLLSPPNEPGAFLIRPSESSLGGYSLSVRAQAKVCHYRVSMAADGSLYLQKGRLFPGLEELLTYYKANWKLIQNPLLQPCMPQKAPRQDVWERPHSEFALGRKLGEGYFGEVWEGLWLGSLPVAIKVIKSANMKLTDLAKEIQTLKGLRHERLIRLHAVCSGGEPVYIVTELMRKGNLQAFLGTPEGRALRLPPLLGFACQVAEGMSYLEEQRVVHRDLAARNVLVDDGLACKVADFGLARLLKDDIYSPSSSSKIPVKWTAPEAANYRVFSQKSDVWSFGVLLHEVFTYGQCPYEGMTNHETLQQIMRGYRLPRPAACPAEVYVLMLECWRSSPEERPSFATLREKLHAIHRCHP

Rattus norvegicus = assay: Antiarthritic activity in Lewis rat model of collagen-induced arthritis assessed as decrease in paw thickness at 15 to 120 mg/kg, po qd and measured for 30 days; type: functional, organism-based; conditions: dose mg/kg 15-120, time 30.0 day
[7] = molecular target: Tyrosine-protein kinase Fyn (Homo sapiens, UniProt P06241); assay: Inhibition of FYN (unknown origin)
[8] = molecular target: T2, Cytoplasmic tyrosine-protein kinase BMX (Homo sapiens, UniProt P51813); assay: Inhibition of BMX (unknown origin)
T2 sequence (P51813 whole entry): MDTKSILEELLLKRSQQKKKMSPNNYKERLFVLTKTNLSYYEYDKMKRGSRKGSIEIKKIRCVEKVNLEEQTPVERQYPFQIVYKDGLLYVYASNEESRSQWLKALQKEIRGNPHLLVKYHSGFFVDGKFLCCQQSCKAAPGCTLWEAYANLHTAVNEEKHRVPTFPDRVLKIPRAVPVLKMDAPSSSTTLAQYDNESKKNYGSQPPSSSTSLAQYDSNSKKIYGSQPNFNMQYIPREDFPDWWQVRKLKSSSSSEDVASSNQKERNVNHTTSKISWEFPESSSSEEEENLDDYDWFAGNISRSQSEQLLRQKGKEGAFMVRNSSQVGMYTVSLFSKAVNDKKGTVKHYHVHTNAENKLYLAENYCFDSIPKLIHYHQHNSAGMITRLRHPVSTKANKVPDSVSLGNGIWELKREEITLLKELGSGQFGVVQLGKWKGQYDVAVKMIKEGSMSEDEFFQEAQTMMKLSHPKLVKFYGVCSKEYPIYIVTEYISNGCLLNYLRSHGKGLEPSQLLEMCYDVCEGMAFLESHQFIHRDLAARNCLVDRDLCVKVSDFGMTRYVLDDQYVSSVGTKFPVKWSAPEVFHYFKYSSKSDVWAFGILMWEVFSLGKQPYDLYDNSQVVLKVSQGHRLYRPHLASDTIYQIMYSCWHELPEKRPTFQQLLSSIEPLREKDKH

[9] = molecular target: Tyrosine-protein kinase FRK (Homo sapiens, UniProt P42685); assay: Inhibition of FRK (unknown origin)
Tyrosine-protein kinase FRK, sequence (P42685 whole entry): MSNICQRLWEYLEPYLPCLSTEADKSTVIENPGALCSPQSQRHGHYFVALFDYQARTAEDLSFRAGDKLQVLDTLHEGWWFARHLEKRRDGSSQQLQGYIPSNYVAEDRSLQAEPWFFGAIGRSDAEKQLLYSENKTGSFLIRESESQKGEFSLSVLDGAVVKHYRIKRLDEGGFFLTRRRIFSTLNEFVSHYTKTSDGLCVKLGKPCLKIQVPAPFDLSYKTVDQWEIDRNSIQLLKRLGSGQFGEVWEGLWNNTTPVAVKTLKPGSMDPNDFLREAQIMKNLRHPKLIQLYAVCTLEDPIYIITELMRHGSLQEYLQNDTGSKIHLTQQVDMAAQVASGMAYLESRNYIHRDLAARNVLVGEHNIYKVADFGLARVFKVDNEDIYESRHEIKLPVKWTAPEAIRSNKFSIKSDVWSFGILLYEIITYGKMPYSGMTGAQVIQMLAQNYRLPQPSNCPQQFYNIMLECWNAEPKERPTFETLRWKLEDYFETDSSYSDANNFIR

[10] = molecular target: Protein-tyrosine kinase 6 (Homo sapiens, UniProt Q13882); assay: Inhibition of PTK6 (unknown origin)
Protein-tyrosine kinase 6, sequence (Q13882 whole entry): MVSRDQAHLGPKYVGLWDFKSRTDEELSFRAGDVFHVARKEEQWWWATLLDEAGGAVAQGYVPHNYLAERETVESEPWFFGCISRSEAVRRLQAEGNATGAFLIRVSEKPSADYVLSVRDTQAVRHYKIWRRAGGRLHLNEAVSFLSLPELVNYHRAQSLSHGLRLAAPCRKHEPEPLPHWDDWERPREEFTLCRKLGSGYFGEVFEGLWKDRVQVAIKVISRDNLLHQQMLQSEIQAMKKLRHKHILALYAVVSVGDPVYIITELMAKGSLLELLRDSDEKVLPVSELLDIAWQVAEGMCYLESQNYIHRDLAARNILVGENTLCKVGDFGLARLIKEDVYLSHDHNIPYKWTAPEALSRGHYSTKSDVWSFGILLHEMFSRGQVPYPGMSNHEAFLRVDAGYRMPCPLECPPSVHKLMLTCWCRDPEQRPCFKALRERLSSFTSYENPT

[11] = molecular target: Proto-oncogene tyrosine-protein kinase Src (Homo sapiens, UniProt P12931); assay: Inhibition of SRC (unknown origin)
[12] = molecular target: Tyrosine-protein kinase Lck (Homo sapiens, UniProt P06239); assay: Inhibition of LCK (unknown origin)
[13] = molecular target: T3, Tyrosine-protein kinase Tec (Homo sapiens, UniProt P42680); assay: Inhibition of TEC (unknown origin)
T3 sequence (P42680 whole entry): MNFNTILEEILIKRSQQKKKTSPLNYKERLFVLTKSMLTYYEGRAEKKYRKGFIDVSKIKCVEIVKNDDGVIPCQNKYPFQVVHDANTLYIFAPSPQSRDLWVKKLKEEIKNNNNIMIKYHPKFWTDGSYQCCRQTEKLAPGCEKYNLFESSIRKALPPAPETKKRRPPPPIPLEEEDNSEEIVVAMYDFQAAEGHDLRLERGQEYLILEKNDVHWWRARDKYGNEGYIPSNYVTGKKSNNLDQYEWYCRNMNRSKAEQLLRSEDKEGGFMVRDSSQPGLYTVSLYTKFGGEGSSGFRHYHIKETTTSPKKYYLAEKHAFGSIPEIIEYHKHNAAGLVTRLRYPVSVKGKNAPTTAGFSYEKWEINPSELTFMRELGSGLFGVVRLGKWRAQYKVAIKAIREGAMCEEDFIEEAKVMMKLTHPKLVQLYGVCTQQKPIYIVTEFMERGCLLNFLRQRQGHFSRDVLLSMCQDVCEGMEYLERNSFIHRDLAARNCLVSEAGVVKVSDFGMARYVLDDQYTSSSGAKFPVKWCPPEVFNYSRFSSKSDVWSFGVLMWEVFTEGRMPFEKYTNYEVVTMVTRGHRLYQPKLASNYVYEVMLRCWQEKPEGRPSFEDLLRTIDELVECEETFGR

[14] = Half life in Beagle dog at 1 mg/kg, iv; type: ADME, organism-based, Canis lupus familiaris; conditions: in vivo
[15] = molecular target: Tyrosine-protein kinase Yes (Homo sapiens, UniProt P07947); assay: Inhibition of YES1 (unknown origin)
Tyrosine-protein kinase Yes, sequence (P07947 whole entry): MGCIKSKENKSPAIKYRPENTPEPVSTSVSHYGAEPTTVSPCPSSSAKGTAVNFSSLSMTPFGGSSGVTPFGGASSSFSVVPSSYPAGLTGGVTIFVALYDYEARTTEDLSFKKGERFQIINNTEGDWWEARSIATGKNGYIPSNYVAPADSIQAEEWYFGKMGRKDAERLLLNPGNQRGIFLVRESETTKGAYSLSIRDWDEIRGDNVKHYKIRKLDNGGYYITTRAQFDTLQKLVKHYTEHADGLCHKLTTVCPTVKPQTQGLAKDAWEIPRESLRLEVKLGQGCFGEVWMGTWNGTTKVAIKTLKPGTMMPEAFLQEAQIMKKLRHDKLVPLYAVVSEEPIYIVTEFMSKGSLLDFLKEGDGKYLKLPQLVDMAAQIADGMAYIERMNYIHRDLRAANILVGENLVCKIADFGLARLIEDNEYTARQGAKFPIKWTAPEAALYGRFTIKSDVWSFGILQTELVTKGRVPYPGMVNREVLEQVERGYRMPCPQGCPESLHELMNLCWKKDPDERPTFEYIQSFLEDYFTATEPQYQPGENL

[16] = molecular target: Tyrosine-protein kinase Lyn (Homo sapiens, UniProt P07948); assay: Inhibition of LYNB (unknown origin)
Tyrosine-protein kinase Lyn, sequence (P07948 whole entry): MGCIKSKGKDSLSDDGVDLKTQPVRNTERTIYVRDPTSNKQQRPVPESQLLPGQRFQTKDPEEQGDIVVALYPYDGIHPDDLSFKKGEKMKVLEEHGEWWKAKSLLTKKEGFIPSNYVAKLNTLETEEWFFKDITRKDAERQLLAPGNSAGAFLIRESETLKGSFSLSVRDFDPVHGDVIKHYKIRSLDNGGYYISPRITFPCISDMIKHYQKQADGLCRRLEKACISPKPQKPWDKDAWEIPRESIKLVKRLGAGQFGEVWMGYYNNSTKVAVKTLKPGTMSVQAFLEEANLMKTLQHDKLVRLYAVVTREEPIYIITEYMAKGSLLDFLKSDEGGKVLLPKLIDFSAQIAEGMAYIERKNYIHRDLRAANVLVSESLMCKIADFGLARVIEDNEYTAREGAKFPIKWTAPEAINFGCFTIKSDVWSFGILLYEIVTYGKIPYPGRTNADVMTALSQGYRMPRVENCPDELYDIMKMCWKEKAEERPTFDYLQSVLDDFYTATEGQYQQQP

[17] = molecular target: Tyrosine-protein kinase CSK (Homo sapiens, UniProt P41240); assay: Inhibition of CSK (unknown origin)
Tyrosine-protein kinase CSK, sequence (P41240 whole entry): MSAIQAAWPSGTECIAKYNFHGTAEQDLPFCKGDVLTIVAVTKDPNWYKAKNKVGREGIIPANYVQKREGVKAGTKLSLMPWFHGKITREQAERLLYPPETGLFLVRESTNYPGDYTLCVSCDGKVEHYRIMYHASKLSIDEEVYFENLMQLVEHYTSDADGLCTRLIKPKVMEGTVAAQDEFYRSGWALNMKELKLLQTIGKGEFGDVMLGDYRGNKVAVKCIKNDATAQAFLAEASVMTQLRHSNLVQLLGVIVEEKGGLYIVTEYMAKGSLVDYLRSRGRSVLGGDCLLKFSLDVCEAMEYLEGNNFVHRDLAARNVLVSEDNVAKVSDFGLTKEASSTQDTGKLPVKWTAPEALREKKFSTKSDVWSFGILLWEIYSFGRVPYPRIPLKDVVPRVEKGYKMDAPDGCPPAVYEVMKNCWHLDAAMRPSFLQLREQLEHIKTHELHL

[18] = Oral bioavailability in Wistar Han rat at 5 mg/kg; type: ADME, organism-based; conditions: Wistar Han, in vivo
[19] = Clearance in Wistar Han rat at 2 mg/kg, iv; type: ADME, organism-based; conditions: in vivo
[20] = Volume of distribution at steady state in Wistar Han rat at 2 mg/kg, iv; type: ADME, organism-based; conditions: in vivo, read-out: Vdss
[21] = Tmax in Beagle dog at 2 mg/kg, po; type: ADME, organism-based, Canis lupus familiaris; conditions: in vivo
[22] = Volume of distribution at steady state in Beagle dog at 1 mg/kg, iv; type: ADME, organism-based, Canis lupus familiaris; conditions: in vivo, read-out: Vdss
[23] = Tmax in Wistar Han rat at 5 mg/kg, po; type: ADME, organism-based; conditions: in vivo
[24] = AUC in Wistar Han rat at 2 mg/kg, iv; type: ADME, organism-based; set-up: dose 2 mg/kg; conditions: in vivo
[25] = molecular target: Tyrosine-protein kinase Blk (Homo sapiens, UniProt P51451); assay: Inhibition of BLK (unknown origin)
Tyrosine-protein kinase Blk, sequence (P51451 whole entry): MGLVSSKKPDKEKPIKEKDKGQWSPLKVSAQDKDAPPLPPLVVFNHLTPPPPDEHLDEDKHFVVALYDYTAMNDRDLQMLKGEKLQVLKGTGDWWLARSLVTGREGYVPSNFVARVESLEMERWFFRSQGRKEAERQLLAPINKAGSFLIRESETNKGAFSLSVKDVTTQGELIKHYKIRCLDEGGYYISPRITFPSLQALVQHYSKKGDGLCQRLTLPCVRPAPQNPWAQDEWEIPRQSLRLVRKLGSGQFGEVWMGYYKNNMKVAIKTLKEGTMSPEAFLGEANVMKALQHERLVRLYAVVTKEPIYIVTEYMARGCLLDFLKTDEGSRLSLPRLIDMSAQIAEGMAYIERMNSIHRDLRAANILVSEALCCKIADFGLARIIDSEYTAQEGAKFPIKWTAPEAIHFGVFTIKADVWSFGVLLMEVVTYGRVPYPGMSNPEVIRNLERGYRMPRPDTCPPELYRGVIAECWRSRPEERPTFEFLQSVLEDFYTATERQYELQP

[26] = Cmax in Wistar Han rat at 5 mg/kg, po; type: ADME, organism-based; set-up: route oral, dose 5 mg/kg; conditions: in vivo
[27] = Oral bioavailability in Beagle dog at 2 mg/kg; type: ADME, organism-based, Canis lupus familiaris; conditions: in vivo
[28] = molecular target: Tyrosine-protein kinase Fgr (Homo sapiens, UniProt P09769); assay: Inhibition of FGR (unknown origin)
[29] = Clearance in Beagle dog at 1 mg/kg, iv; type: ADME, organism-based, Canis lupus familiaris; conditions: in vivo

COc1cc(C(=O)Nc2cc(C(F)(F)F)ccn2)ccc1-c1nc([C@@H]2CC[C@H]3CCC(=O)N3C2)n2ccnc(N)c12
AUC [1]: 1.6 µM·h | IC50 [2]: 102 nM | half-life [3]: 3 h | Cmax [4]: 1100 nM | IC50 [5]: 160 nM | IC50 [6]: 16 nM | Activity (Rattus norvegicus): Dose-dependent effect | IC50 [7]: 1230 nM | IC50 [8]: 19 nM | IC50 [9]: 154 nM | IC50 [10]: 84 nM | IC50 [11]: 71 nM | IC50 [12]: 26 nM | IC50 [13]: 67 nM | half-life [14]: 3.4 h | IC50 [15]: 54 nM | IC50 [16]: 162 nM | IC50 [17]: 227 nM | bioavailability [18]: 9.5% | clearance [19]: 53 mL/min/kg | Vd [20]: 4 L/kg | Tmax [21]: 1.5 h | Vd [22]: 3 L/kg | Tmax [23]: 2.1 h | AUC [24]: 1.1 µM·h | IC50 [25]: 101 nM | Cmax [26]: 50 nM | bioavailability [27]: 108% | IC50 [28]: 64 nM | clearance [29]: 20 mL/min/kg

Source: ChEMBL document CHEMBL4725309, “Potent, non-covalent reversible BTK inhibitors with 8-amino-imidazo[1,5-a]pyrazine core featuring 3-position bicyclic ring substitutes” (Bioorg Med Chem Lett, 2020)
